pIC50: −log10 of the molar value.

One assay concerns the target hCRTH2 receptor (Homo sapiens (Human), UniProt Q9Y5Y4). Briefly: hCRTH2 receptor membranes radioligand (3H-PGD2) displacement assay. In kind it is binding. As to conditions: 3H-PGD2 radioligand displacement, HEK293-hCRTH2 membranes. The procedure, abridged: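 Compound was first mixed with buffer, then 3H-PGD2 was added at 2.5 nM, and the reaction was started with hCRTH2 membranes from HEK293 cells at 20 μg/well. After 90 min at room temperature, mixtures were filtered and washed with ice-cold buffer, and retained radioactivity was counted.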

In the next assay the test system is eosinophils. The experiment in a line: Eosinophil shape change assay with human plasma. The following applies: Homo sapiens, Eosinophil, human plasma (50%), PGD2 100 nM activation, antagonistic activity. In kind it is cell-based. The source says:
Eosinophil Shape Change Assay with Human Plasma
After obtaining informed consent, blood samples were drawn by venipuncture according to the protocol approved by the ethics committee of Basel, Switzerland. Polymorphonuclear leukocytes (containing eosinophils, basophils and neutrophils) were isolated using the Polymorphprep™ method (Axis-Shield). […] The polymorphonuclear cell fraction was harvested and depleted for erythrocytes by hypotonic saline lysis.
The polymorphonuclear cells were resuspended in assay buffer (1×PBS with Ca^2+/Mg^2+ supplemented with 0.1% BSA, 10 mM HEPES, and 10 mM Glucose, pH 7.4) at 5×10^6 cells/ml and stained with anti-CD49d-APC ((APC=Allophycocyanin) for 1 hour at RT. Test compounds, at various concentrations, were preincubated 10 min in human plasma (anticoagulated with a thrombin inhibitor). Then, human plasma was added to the polymorphonuclear cells to 50% of final assay volume with polymorphonuclear cells at 4×10^6 cells/ml. After incubation for 10 minutes at 37° C., the polymorphonuclear cells were activated for 5 min at 37° C. by addition of PGD2 at 100 nM final concentration. Activation was stopped by addition of 0.5 ml paraformaldehyde (1%).
Immediately after fixation with paraformaldehyde, the samples were analyzed by FACSCanto flow cytometer (BD Biosciences) and target cells were identified by their forward-scatter (FSC) and side-scatter (SSC) characteristics. Eosinophils were identified by the anti-CD49d-APC signal and their characteristic side-scatter (SSC) profile. Shape change responses, indicative of eosinophil activation, were quantified as the percent of cells with an increased forward-scatter.

Chain of hCRTH2 receptor (Q9Y5Y4 whole entry): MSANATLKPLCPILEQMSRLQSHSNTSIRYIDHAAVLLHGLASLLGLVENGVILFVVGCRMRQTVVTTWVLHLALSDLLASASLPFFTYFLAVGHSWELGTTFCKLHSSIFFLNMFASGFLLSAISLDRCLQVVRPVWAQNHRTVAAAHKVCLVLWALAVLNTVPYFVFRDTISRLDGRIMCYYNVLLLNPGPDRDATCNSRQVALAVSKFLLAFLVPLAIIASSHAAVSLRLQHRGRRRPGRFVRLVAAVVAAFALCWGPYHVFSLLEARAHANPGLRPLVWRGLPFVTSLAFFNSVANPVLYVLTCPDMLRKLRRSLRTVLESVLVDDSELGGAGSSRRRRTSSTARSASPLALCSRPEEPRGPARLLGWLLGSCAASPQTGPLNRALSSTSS

With `COc1ccc(CC(=O)O)cc1-c1cc(F)c(F)c2c1CN(C(=O)OCc1ccccc1)CC2` [Example 31, 8-(5-Carboxymethyl-2-methoxy-phenyl)-5,6-difluoro-3,4-dihydro-1H-isoquinoline-2-carboxylic acid benzyl ester], the negative logarithm of the IC50 (pIC50) on hCRTH2 receptor is 7.92; with eosinophils, 6.36.

Take `CCOc1cc(CC(=O)O)ccc1-c1ccc(F)c2c1CN(C(=O)CC1OCCc3ccccc31)CC2` (centres unmarked) [Example 205, {3-Ethoxy-4-[5-fluoro-2-(2-isochroman-1-yl-acetyl)-1,2,3,4-tetrahydro-isoquinolin-8-yl]-phenyl}-acetic acid]: the negative logarithm of the IC50 (pIC50) at hCRTH2 receptor is 9.00; in the assay with eosinophils it was 7.77.

With `CCOc1ccc(CC(=O)O)cc1-c1ccc(F)c2c1CN(C(=O)NCc1ccccc1)CC2` [Example 438, [3-(2-Benzylcarbamoyl-5-fluoro-1,2,3,4-tetrahydro-isoquinolin-8-yl)-4-ethoxy-phenyl]-acetic acid], the pIC50 on hCRTH2 receptor was 8.43; in the assay with eosinophils, 7.85.

For `COc1ccc(CC(=O)O)cc1-c1ccc(F)c2c1CN(C(=O)CC1COCc3ccccc31)CC2` (racemic) [Example 271], the pIC50 was 7.65 on hCRTH2 receptor and 7.04 in the assay with eosinophils.

In the case of `O=C(O)COc1ccc(OC(F)(F)F)c(-c2ccc(F)c3c2CN(C(=O)OCc2ccccc2)CC3)c1` [Example 162, 8-(5-Carboxymethoxy-2-trifluoromethoxy-phenyl)-5-fluoro-3,4-dihydro-1H-isoquinoline-2-carboxylic acid benzyl ester], the negative logarithm of the IC50 (pIC50) was 8.61 at hCRTH2 receptor and 6.77 in the assay with eosinophils.

With `CCOc1ccc(CC(=O)O)cc1-c1ccc(F)c2c1CN(C(=O)CC1CCOc3cc(F)ccc31)CC2` (racemic) [Example 335], the figures for the pIC50 on hCRTH2 receptor and in the assay with eosinophils were 9.05 and 7.59, respectively.

For `CCOc1ccc(CC(=O)O)cc1-c1ccc(F)c2c1CN(C(=O)OCc1ccccc1)CC2` [Example 195, 8-(5-Carboxymethyl-2-ethoxy-phenyl)-5-fluoro-3,4-dihydro-1H-isoquinoline-2-carboxylic acid benzyl ester], the values for the pIC50 at hCRTH2 receptor and in the assay with eosinophils were 8.97 and 7.68, respectively.

As to `CCOc1ccc(CC(=O)O)cc1-c1ccc(F)c2c1CN(C(=O)CC1(c3ccc(F)cc3)CC1)CC2` [Example 277, [4-Ethoxy-3-(5-fluoro-2-{2-[1-(4-fluoro-phenyl)-cyclopropyl]-acetyl}-1,2,3,4-tetrahydro-isoquinolin-8-yl)-phenyl]-acetic acid], the results for the negative logarithm of the IC50 (pIC50) on hCRTH2 receptor and in the assay with eosinophils were 8.72 and 7.68, respectively.

Turning to `COc1ccc(CC(=O)O)cc1-c1c(F)cc(F)c2c1CN(C(=O)OCc1ccccc1)CC2` [Example 39, 8-(5-Carboxymethyl-2-methoxy-phenyl)-5,7-difluoro-3,4-dihydro-1H-isoquinoline-2-carboxylic acid benzyl ester], the pIC50 at hCRTH2 receptor was 8.23; with eosinophils, 6.39.

In the case of `COc1ccc(CC(=O)O)cc1-c1ccc(F)c2c1CN(C(=O)OCc1ccc(F)cc1)CC2` [Example 139, 8-(5-Carboxymethyl-2-methoxy-phenyl)-5-fluoro-3,4-dihydro-1H-isoquinoline-2-carboxylic acid 4-fluoro-benzyl ester], the pIC50 at hCRTH2 receptor is 8.60; in the assay with eosinophils, 7.01.

Take `COc1ccc(CC(=O)O)cc1-c1ccc(F)c2c1CN(C(=O)CC1CCc3ccccc3C1)CC2` (racemic) [Example 260]: the pIC50 at hCRTH2 receptor is 8.85; in the assay on eosinophils, 7.25.

Regarding `COc1ccc(CC(=O)O)cc1-c1ccc(F)c2c1CN(C(=O)[C@@H]1C[C@H]1c1ccccc1)CC2` [Example 80, {3-[5-Fluoro-2-((1R,2R)-2-phenyl-cyclopropanecarbonyl)-1,2,3,4-tetrahydro-isoquinolin-8-yl]-4-methoxy-phenyl}-acetic acid], the figures for the pIC50 on hCRTH2 receptor and in the assay with eosinophils were 8.72 and 8.33, respectively.

Regarding `CCOc1ccc(CC(=O)O)cc1-c1ccc(F)c2c1CN(C(=O)CC(C)c1cccc(F)c1)CC2` (racemic) [Example 279], the negative logarithm of the IC50 (pIC50) at hCRTH2 receptor is 8.16; in the assay on eosinophils, 7.35.

Turning to `CCOc1ccc(CC(=O)O)cc1-c1ccc(F)c2c1CN(C(=O)CC(C)(C)c1ccc(F)cc1)CC2` [Example 223, (4-Ethoxy-3-{5-fluoro-2-[3-(4-fluoro-phenyl)-3-methyl-butyryl]-1,2,3,4-tetrahydro-isoquinolin-8-yl}-phenyl)-acetic acid], the pIC50 at hCRTH2 receptor is 7.82; with eosinophils, 7.72.

Turning to `COc1ccc(CC(=O)O)cc1-c1ccc(Cl)c2c1CN(C(=O)[C@@H]1C[C@H]1c1ccccc1)CC2` [Example 71, {3-[5-Chloro-2-((1R,2R)-2-phenyl-cyclopropanecarbonyl)-1,2,3,4-tetrahydro-isoquinolin-8-yl]-4-methoxy-phenyl}-acetic acid], the pIC50 on hCRTH2 receptor was 8.77; with eosinophils, 7.66.

Consider `COc1ccc(CC(=O)O)cc1-c1ccc(F)c2c1CN(C(=O)CC(C)c1ccccn1)CC2` (racemic) [Example 265], for which the negative-log IC50 (pIC50) at hCRTH2 receptor is 8.11; in the assay with eosinophils, 7.01.

`COc1ccc(OCC(=O)O)cc1-c1ccc(F)c2c1CN(C(=O)[C@@H]1C[C@H]1c1ccccc1)CC2` [Example 182, {3-[5-Fluoro-2-((1R,2R)-2-phenyl-cyclopropanecarbonyl)-1,2,3,4-tetrahydro-isoquinolin-8-yl]-4-methoxy-phenoxy}-acetic acid]: the pIC50 at hCRTH2 receptor was 8.36; in the assay with eosinophils it was 7.47.

Consider `CCOc1ccc(CC(=O)O)cc1-c1ccc(F)c2c1CN(C(=O)OCc1cnccn1)CC2` [Example 365, 8-(5-Carboxymethyl-2-ethoxy-phenyl)-5-fluoro-3,4-dihydro-1H-isoquinoline-2-carboxylic acid pyrazin-2-ylmethyl ester], for which the negative-log IC50 (pIC50) is 8.41 at hCRTH2 receptor and 7.49 in the assay with eosinophils.

For `CCOc1ccc(CC(=O)O)cc1-c1ccc(F)c2c1CN(C(=O)OCc1ccc(F)cc1F)CC2` [Example 403, 8-(5-Carboxymethyl-2-ethoxy-phenyl)-5-fluoro-3,4-dihydro-1H-isoquinoline-2-carboxylic acid 2,4-difluoro-benzyl ester], the negative-log IC50 (pIC50) on hCRTH2 receptor is 8.77; in the assay on eosinophils, 7.82.

For `O=C(O)Cc1ccc(OC(F)F)c(-c2ccc(F)c3c2CN(C(=O)OCc2ccccc2)CC3)c1` [Example 412, 8-(5-Carboxymethyl-2-difluoromethoxy-phenyl)-5-fluoro-3,4-dihydro-1H-isoquinoline-2-carboxylic acid benzyl ester], the pIC50 at hCRTH2 receptor is 8.74; in the assay on eosinophils, 7.33.

For the compound `O=C(O)Cc1ccc(OCC(F)(F)F)c(-c2ccc(F)c3c2CN(C(=O)OCc2ccccc2)CC3)c1` [Example 421, 8-[5-Carboxymethyl-2-(2,2,2-trifluoro-ethoxy)-phenyl]-5-fluoro-3,4-dihydro-1H-isoquinoline-2-carboxylic acid benzyl ester], the negative-log IC50 (pIC50) at hCRTH2 receptor was 8.42; in the assay with eosinophils, 7.80.

With `CCOc1cc(CC(=O)O)ccc1-c1ccc(F)c2c1CN(C(=O)CC(C)c1ccccn1)CC2` (racemic) [Example 344], the pIC50 at hCRTH2 receptor is 9.05; in the assay on eosinophils, 7.29.

In the case of `CCOc1cc(CC(=O)O)ccc1-c1ccc(F)c2c1CN(C(=O)CCc1cccc(C)n1)CC2` [Example 321, (3-Ethoxy-4-{5-fluoro-2-[3-(6-methyl-pyridin-2-yl)-propionyl]-1,2,3,4-tetrahydro-isoquinolin-8-yl}-phenyl)-acetic acid], the pIC50 is 8.14 at hCRTH2 receptor and 7.70 in the assay with eosinophils.

Consider `CCOc1ccc(CC(=O)O)cc1-c1ccc(F)c2c1CN(C(=O)CC1OCCc3ccccc31)CC2` (racemic) [Example 224], for which the pIC50 was 8.09 on hCRTH2 receptor and 8.00 in the assay with eosinophils.

As for `COc1ccc(CC(=O)O)cc1-c1ccc(F)c2c1CN(C(=O)CCc1ccccc1)CC2` [Example 54, {3-[5-Fluoro-2-(3-phenyl-propionyl)-1,2,3,4-tetrahydro-isoquinolin-8-yl]-4-methoxy-phenyl}-acetic acid], the pIC50 on hCRTH2 receptor was 8.23; with eosinophils, 6.74.

For the compound `COc1ccc(CC(=O)O)cc1-c1ccc(F)c2c1CN(C(=O)CC(C)(C)c1ccc(F)cc1)CC2` [Example 363, (3-{5-Fluoro-2-[3-(4-fluoro-phenyl)-3-methyl-butyryl]-1,2,3,4-tetrahydro-isoquinolin-8-yl}-4-methoxy-phenyl)-acetic acid], the pIC50 on hCRTH2 receptor is 8.62; in the assay on eosinophils, 7.70.

As to `CCOc1ccc(CC(=O)O)cc1-c1ccc(F)c2c1CN(C(=O)CC(C)c1ccccn1)CC2` (racemic) [Example 345], the figures for the pIC50 on hCRTH2 receptor and in the assay on eosinophils were 8.32 and 7.51, respectively.

For `COc1ccc(CC(=O)O)cc1-c1cc(F)cc2c1CN(C(=O)OCc1ccccc1)CC2` [Example 32, 8-(5-Carboxymethyl-2-methoxy-phenyl)-6-fluoro-3,4-dihydro-1H-isoquinoline-2-carboxylic acid benzyl ester], the negative-log IC50 (pIC50) was 7.98 at hCRTH2 receptor and 6.45 with eosinophils.

In general, pIC50 refers to −log10 of the IC50, conventionally taken in molar units.

For the origin of these results see patent US9255090B2, “Heterocyclyl derivatives and their use as prostaglandin D2 receptor modulators” (Actelion Pharmaceuticals Ltd., priority 2012, dated 2016).
